Numbers after ± are expanded uncertainties.

For the data set the following is noted: Crystal; DTA.
In the case of `[Br-].[Li+]` [lithium bromide], the Normal melting temperature was 551 ± 0.6 °C.

As for `[F-].[Li+]` [lithium fluoride], the Normal melting temperature is 844 ± 0.6 °C.

As for `[Ag][I]` [silver iodide], the Normal melting temperature turned out to be 559 ± 0.6 °C.
